Data published in publication PMC12645437, “Orthogonal IMiD-Degron Pairs Induce Selective Protein Degradation in Cells” (ACS Chemical Biology, 2025).
“And” between values parts separate entries of the source, which are not always exact repeats. Identical values can stand only once.

Columns and labels:
[1] = biological target: T1, WT IKZF3-derived degron fused to EGFP (Homo sapiens, UniProt Q96SW2+Q9UKT9); experiment: Ratiometric EGFP:mCherry flow cytometry degradation assay, 18 h; type: cell-based; details: Jurkat; for Degradation pDC50 WT: Fig 2B; for DC50 / pDC50: WT degron, Fig 5A
T1 construct: Plasmid: pLVX-Sprout-IKZF3 130-189aa (WT); expressed in transfected cells

[2] = biological target: T2, Q147A mutant degron (ANQS) fused to EGFP (Homo sapiens, UniProt Q96SW2+Q9UKT9, Q147A); experiment: as above; type: cell-based; details: for Dmax: Fig 2B, read-out: DMax Q147A/%
T2 construct: pLVX-Sprout-IKZF3 130-189aa Q147A (ANQS); expressed in transfected cells

[3] = tested on: library of 8380 IKZF3 degrons fused to EGFP in Jurkat cells; experiment: Pooled mutant ZF degron library screen (FACS EGFPlow vs EGFP+, NGS), 18 h; type: cell-based, human;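 on logFC: Log2 fold change of EGFPlow over EGFP+ representation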
[4] = biological target: T3, endogenous IKZF1 in Jurkat cells (Homo sapiens, UniProt Q13422+Q96SW2); experiment: Endogenous IKZF1 immunostaining, fluorescent antibody flow cytometry assay; type: cell-based; details: 18 h
T3 construct: endogenous in cells; host or cells: Jurkat (untransduced for immunostaining; WEIS-EGFP-transduced for the blot)
Protocol: As we sought to screen a large number of mutant ZF degrons with different mutation combinations, we pursued a library screen approach similar to that previously employed by Sievers et al. and Jan et al. , Only the most promising compounds from the original set of 36 were used for the library screen. To help narrow the candidates, a subset of compounds was tested for endogenous IKZF1 degradation in Jurkat cells using a fluorescent antibody flow cytometry assay (Figure S5). […] Thalidomide and lenalidomide were also included as controls.
Endogenous IKZF1 Immunostaining
37 °C and 5% CO2. Following incubation, cells were stained with LIVE/DEAD™ Fixable Aqua Dead Cell Stain (Thermo) diluted 1000X in PBS for 30 min at room temperature and then incubated with Human TruStain FcX block (Biolegend) diluted 40X in PBS + 1% FBS (Gibco) for 10 min at room temperature. Intranuclear staining of IKZF1 was carried out using the Transcription Factor Buffer Set (BD Bioscience) according to the manufacturer's protocol and staining with IKZF1 AF488 antibody (clone R32-1149, BD Bioscience) diluted 40X for 30 minutes at room temperature. Cells were acquired on a Cytoflex S (Beckman Coulter) and data analysed using FlowJo 10.8.1 9 (BD).

[5] = biological target: T4, endogenous IKZF3 in Jurkat cells (Homo sapiens, UniProt Q96SW2+Q9UKT9); experiment: Western blot for endogenous IKZF3; type: cell-based; details: 18 h; for endogenous IKZF3 levels (Western blot): transduced Jurkat cells; for degradation of endogenous IKZF3 (Western blot): untransduced Jurkat cells
T4 construct: endogenous in cells; host or cells: Jurkat (transduced with ZF-EGFP constructs, or untransduced)

[6] = biological target: FEVP mutant ZF degron fused to EGFP (Homo sapiens, UniProt Q96SW2+Q9UKT9, N149E/Q147F/Q150V/S154P); experiment: Ratiometric EGFP:mCherry flow cytometry degradation assay, 18 h
HA-NanoLuc-WEIS = biological target: T5, HA-NanoLuc-WEIS (Homo sapiens, UniProt Q96SW2+Q9UKT9, N149E/Q147W/Q150I); experiment: Nano-Glo luminescence assay in HEK293T cells; type: cell-based; details: NanoGlo
T5 construct: pLVX-Sprout-IKZF3 130-189aa Q147W N149E Q150I (WEIS); expressed in transfected cells; host or cells: HEK293T, lentiviral transduction, puromycin-selected
Protocol: To this end, a nuclear protein, CDK9, and a cytoplasmic protein, HPRT1, were selected, in addition to a well-characterized enzyme capable of generating bioluminescence, NanoLuc. , Fusion constructs comprising a POI with an N-terminal HA tag linked to the POI by two glycine residues and a C-terminal WEIS motif linked to the POI by a flexible [sequence] linker region were exogenously expressed in HEK293T cells.
Compound 23 (10 mM stock in DMSO) was serially diluted 10-fold to create an 5-point dilution spanning 1n M–10 μM (final assay concentration) and an untreated control, with all concentrations at 0.1% DMSO. HEK293T cells transduced with HA-NanoLuc-WEIS lentiviral vectors were seeded in white, opaque, flat-bottom 96-well plate (Falcon) at 2 × 10^4 cells per well in 40 µL
signal was measured by adding 40 µL of the Nano-Glo lytic detection reagent (Promega),
incubating at rt for 3 minutes, then reading using an EnVision multimode plate reader
(PerkinElmer). […] Three biological repeats
were carried out for this assay, with each biological replicate plate comprising three replicate

Jurkat cells = experiment: TMTpro quantitative proteomics, 16 h; details: Jurkat, 10 μM, 16 h; 9644 quantified proteins
Protocol: Quantitative proteomics screens were carried out in untransduced Jurkat cells, embryonic stem cells (ESCs), and the multiple myeloma cell line, MM.1S. We used Jurkat cells, as our work up to this point had employed this cell line, and we selected ESCs and MM.1S cells as they express known CRBN neosubstrates, including IKZF1, IKZF3, RAB28, RNF166, SALL4, ZFP91, and ZNF827.
Proteomics - cell lysis and protein digestion
The viability of Jurkat cells was tested after 16-h treatment with corresponding chemicals
viable cells in each condition. Next, ~10^7 cells per condition were collected by centrifugation (1000 rpm), washed twice with ice-cold PBS, and lysed in RIPA buffer [50 mM HEPES pH 7.4, 150 mM NaCl, 1% sodium deoxycholate, 1% NP-40, 0.1% SDS, 10 mM sodium pyrophosphate, 10 mM β-glycerophosphate, 2.5 mM MgCl2, 200 µM TCEP, phosphatase and protease inhibitor cocktail (in-house)], to produce whole cell extracts. Whole-cell extracts were sonicated, and protein concentrations were determined using the Bradford assay. Protein extracts (100 µg) were subjected to disulfide bond reduction with 5 mM TCEP (10 min) and alkylation with 25 mM chloroacetamide (20 min). Methanol–chloroform precipitation was performed prior to protease digestion. In brief, four parts of neat methanol were added to each sample and vortexed, one part chloroform was added to the sample and vortexed, and finally, three parts water was added to the sample and vortexed. The sample was centrifuged at 8000 rpm for 5 min at room temperature and subsequently washed twice with 100% methanol. Samples were resuspended in 100 mM EPPS pH8.5 containing
0.1% RapiGest and digested at 37 °C for 6 h with trypsin at a 100:1 protein-to-protease ratio.
Samples were then subjected to TMTpro
labeling. The preparation of MM1S cell extracts was conducted using the same procedure as for
Jurkat cells. ESC cells were plated onto 6 cm dishes 24 hours prior to the chemical treatment.
Following the chemical treatment, the cells on the dish were washed with DPBS four times, after
which RIPA buffer was added directly to the dish, and the lysate was collected using a scraper.
The whole cell lysates were then processed similarly to the Jurkat cell lysates.
Proteomics - Tandem mass tag labeling
Proline-based reporter isobaric Tandem Mass Tag (TMTpro) labeling of dried peptide samples
resuspended in 100 mM EPPS pH 8.5, was carried out as follows. TMTpro reagent was added to
samples (100 µg peptide), along with acetonitrile, to achieve a final acetonitrile concentration of
approximately 30% (v/v). Following incubation at room temperature for 1 h, the labeling efficiency
of a small aliquot was tested. The reaction was then quenched with hydroxylamine to a final
concentration of 0.5% (v/v) for 15 min. The TMTpro-labeled samples were pooled together at a
1:1 ratio. The sample was vacuum centrifuged to near dryness and subjected to C18 solid-phase
The dried TMTpro-labeled sample was resuspended in 100 μL of 10 mM NH4HCO3 pH 8.0 and
fractionated using basic pH reverse phase HPLC 40. Briefly, samples were offline fractionated over
a 90 min run, into 96 fractions by high pH reverse-phase HPLC (Agilent LC1260) through an aeris
peptide xb-c18 column (Phenomenex; 250 mm × 3.6 mm) for total proteome with mobile phase A
containing 5% acetonitrile and 10 mM NH4HCO3, and mobile phase B containing 90% acetonitrile

[7] = biological target: WNQS mutant ZF degron fused to EGFP (Homo sapiens, UniProt Q96SW2+Q9UKT9, Q147W); experiment: Ratiometric EGFP:mCherry flow cytometry degradation assay, 18 h
[8] = WT degron, residues 146/147/149/150/152/153/154/155/167: FQNQGASFL
[9] = degron residues 146/147/149/150/152/153/154/155/167: FADIGAAFL
[10] = degron residues 146/147/149/150/152/153/154/155/167: FADIGACFL
[11] = degron residues 146/147/149/150/152/153/154/155/167: FADIGADFL
[12] = degron residues 146/147/149/150/152/153/154/155/167: FADIGAEFL
[13] = degron residues 146/147/149/150/152/153/154/155/167: FWEIGACFL
[14] = degron residues 146/147/149/150/152/153/154/155/167: FWEIGAKFL (WEIK)

T5 sequence (Q9UKT9 130-189 Q147W/N149E/Q150I): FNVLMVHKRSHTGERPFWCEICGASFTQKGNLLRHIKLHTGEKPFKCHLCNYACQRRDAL
T5 sequence (Q96SW2 whole entry): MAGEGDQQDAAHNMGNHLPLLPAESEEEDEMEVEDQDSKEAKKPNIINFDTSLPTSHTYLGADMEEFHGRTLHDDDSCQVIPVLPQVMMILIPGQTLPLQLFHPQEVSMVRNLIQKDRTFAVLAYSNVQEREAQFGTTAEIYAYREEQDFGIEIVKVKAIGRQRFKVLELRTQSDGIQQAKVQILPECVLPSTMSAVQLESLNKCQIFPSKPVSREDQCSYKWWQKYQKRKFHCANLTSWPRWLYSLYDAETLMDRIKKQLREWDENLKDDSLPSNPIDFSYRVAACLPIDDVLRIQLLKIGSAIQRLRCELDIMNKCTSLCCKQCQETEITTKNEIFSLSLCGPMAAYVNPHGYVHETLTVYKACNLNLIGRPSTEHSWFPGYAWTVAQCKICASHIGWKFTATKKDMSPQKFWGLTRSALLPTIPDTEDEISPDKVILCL
T5 sequence (Q16531 whole entry partner): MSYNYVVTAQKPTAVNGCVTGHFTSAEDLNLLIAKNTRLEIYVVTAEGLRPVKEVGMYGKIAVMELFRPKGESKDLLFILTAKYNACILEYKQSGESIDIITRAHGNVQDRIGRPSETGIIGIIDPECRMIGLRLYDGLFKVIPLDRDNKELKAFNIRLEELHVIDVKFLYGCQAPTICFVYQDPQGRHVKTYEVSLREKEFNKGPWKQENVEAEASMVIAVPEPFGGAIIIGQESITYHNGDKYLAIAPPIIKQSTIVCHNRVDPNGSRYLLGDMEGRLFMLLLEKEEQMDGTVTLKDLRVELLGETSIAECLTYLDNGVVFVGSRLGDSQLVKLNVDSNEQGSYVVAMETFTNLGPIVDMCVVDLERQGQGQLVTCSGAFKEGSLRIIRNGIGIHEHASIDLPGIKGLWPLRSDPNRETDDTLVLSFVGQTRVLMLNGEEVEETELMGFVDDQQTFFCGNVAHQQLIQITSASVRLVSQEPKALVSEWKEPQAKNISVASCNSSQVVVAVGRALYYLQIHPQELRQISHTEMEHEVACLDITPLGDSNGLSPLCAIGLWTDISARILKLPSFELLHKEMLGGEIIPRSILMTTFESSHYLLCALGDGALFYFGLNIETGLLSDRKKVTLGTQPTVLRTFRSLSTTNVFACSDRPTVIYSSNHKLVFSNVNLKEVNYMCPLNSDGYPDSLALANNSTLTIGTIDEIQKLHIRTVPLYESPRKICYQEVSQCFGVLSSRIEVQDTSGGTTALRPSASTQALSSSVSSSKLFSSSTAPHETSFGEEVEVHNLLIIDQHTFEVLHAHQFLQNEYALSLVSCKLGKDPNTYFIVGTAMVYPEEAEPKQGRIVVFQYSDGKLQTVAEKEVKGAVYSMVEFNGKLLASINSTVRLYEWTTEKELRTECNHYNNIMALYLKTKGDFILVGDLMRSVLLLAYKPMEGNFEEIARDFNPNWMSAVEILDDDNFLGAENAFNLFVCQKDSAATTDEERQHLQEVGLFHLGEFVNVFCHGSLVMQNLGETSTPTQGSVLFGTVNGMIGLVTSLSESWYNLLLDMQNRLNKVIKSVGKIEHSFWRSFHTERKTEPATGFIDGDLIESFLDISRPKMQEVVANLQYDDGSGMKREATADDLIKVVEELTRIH
T1 sequence (Q9UKT9 130-189): as the sequence (Q9UKT9 130-189 Q147W/N149E/Q150I) above, with W18Q, E20N, I21Q counted along it
T1 sequence (Q96SW2 whole entry, the tested form may be a part): as the sequence (Q96SW2 whole entry) above
T1 sequence (Q16531 whole entry partner, the tested form may be a part): as the sequence (Q16531 whole entry partner) above
T4 sequence (Q9UKT9 whole entry): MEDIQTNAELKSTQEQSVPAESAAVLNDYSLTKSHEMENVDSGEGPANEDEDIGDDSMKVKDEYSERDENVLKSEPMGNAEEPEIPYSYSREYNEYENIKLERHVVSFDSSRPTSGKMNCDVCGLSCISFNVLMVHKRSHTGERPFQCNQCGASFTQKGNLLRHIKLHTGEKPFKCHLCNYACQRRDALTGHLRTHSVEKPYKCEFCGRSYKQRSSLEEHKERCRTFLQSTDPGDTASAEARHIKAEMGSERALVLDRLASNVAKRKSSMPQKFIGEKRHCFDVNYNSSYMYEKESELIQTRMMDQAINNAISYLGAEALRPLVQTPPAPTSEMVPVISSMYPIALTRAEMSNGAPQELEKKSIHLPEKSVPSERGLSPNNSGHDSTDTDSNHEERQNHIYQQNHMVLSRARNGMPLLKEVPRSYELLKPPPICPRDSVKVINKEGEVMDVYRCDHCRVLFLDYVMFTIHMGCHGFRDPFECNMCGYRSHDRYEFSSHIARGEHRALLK
T4 sequence (Q96SW2 whole entry): as the sequence (Q96SW2 whole entry) above
T4 sequence (Q16531 whole entry partner): as the sequence (Q16531 whole entry partner) above
T2 sequence (Q9UKT9 130-189 Q147A): as the sequence (Q9UKT9 130-189 Q147W/N149E/Q150I) above, with W18A, E20N, I21Q counted along it
T2 sequence (Q96SW2 whole entry, the tested form may be a part): as the sequence (Q96SW2 whole entry) above
T2 sequence (Q16531 whole entry partner, the tested form may be a part): as the sequence (Q16531 whole entry partner) above
Chain of FEVP mutant ZF degron fused to EGFP (Q9UKT9 130-189 Q147F/N149E/Q150V/S154P): as the sequence (Q9UKT9 130-189 Q147W/N149E/Q150I) above, with W18F, I21V, S25P counted along it
Chain of FEVP mutant ZF degron fused to EGFP (Q96SW2 whole entry, the tested form may be a part): as the sequence (Q96SW2 whole entry) above
Chain of FEVP mutant ZF degron fused to EGFP (Q16531 whole entry partner, the tested form may be a part): as the sequence (Q16531 whole entry partner) above
Chain of WNQS mutant ZF degron fused to EGFP (Q9UKT9 130-189 Q147W): as the sequence (Q9UKT9 130-189 Q147W/N149E/Q150I) above, with E20N, I21Q counted along it
Chain of WNQS mutant ZF degron fused to EGFP (Q96SW2 whole entry, the tested form may be a part): as the sequence (Q96SW2 whole entry) above
Chain of WNQS mutant ZF degron fused to EGFP (Q16531 whole entry partner, the tested form may be a part): as the sequence (Q16531 whole entry partner) above
T3 sequence (Q13422 whole entry): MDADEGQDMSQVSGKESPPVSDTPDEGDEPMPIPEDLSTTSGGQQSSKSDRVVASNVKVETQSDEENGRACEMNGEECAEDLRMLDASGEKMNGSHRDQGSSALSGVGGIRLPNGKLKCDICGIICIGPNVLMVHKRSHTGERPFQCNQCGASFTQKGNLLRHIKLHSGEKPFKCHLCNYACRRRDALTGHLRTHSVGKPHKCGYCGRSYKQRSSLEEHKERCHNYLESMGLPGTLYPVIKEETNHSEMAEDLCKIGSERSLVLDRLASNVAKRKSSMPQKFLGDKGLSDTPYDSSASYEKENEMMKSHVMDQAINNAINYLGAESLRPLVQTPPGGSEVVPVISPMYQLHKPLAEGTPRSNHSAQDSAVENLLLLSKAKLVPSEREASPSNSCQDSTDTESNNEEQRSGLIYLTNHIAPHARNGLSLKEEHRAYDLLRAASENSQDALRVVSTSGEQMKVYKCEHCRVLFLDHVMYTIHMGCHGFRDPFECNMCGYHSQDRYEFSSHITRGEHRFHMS
T3 sequence (Q96SW2 whole entry): as the sequence (Q96SW2 whole entry) above
T3 sequence (Q16531 whole entry partner): as the sequence (Q16531 whole entry partner) above

`CC(C)(C)c1ccc2c(c1)C(=O)N(C1CCC(=O)NC1=O)C2=O` (stereo not shown) [Compound 19] was tested, and the “Degradation pDC50 WT” value [1] was 6.05, the DC50 [1] was 759 nM and the pDC50 [1] was 6.12. For the same compound, the DC50 ([2]; ANQS, Jurkat, 18 h, Fig 5A) was 537 nM, the pDC50 ([2]; ANQS, Jurkat, 18 h, Fig 5A) was 6.27 and the “Selectivity (WT/mutant)” value ([2]; DC50(WT)/DC50(ANQS), Fig 5A) was 1.4. The Dmax ([2]; Jurkat, 18 h) was 87%, the Log2FC [3, 8] was -1.8291 and -1.83 and the logFC [3, 9] was 3.42. For the same compound, the logFC [3, 10] was 2.8476, the logFC [3, 11] was 0.3339 and the logFC [3, 12] was 0.9661. For the same compound, the Log2FC ([3]; degron residues 146/147/149/150/152/153/154/155/167: FAEIGAAFL) was 3.8965, the Log2FC ([3]; degron residues 146/147/149/150/152/153/154/155/167: FAEIGARFL) was 3.8372 and the Log2FC ([3]; degron residues 146/147/149/150/152/153/154/155/167: FAEVGAKFL (AEVK)) was 3.9176 and 3.92 and 3.918. For the same compound, the Log2FC ([3]; degron residues 146/147/149/150/152/153/154/155/167: FAEVGARFL) was 3.9084, the Log2FC ([3]; degron residues 146/147/149/150/152/153/154/155/167: FAEVGASFL) was 3.8698 and the Log2FC ([3]; degron residues 146/147/149/150/152/153/154/155/167: FANQGASFL (ANQS)) was -0.98. The Log2FC ([3]; degron residues 146/147/149/150/152/153/154/155/167: FAPIGASFL (APIS)) was 3.73, the Log2FC ([3]; degron residues 146/147/149/150/152/153/154/155/167: FFDIGAPFL (FDIP)) was 3.9195 and 3.92 and 3.919 and the Log2FC ([3]; degron residues 146/147/149/150/152/153/154/155/167: FFEVGAPFL (FEVP)) was 3.9979 and 4.00 and 3.998. The Log2FC ([3]; degron residues 146/147/149/150/152/153/154/155/167: FFPIGAPFL) was 3.9164, the Log2FC ([3]; degron residues 146/147/149/150/152/153/154/155/167: FGEVGARFL) was 3.8587 and the Log2FC ([3]; degron residues 146/147/149/150/152/153/154/155/167: FGPIGACFL) was 3.9002. The Log2FC ([3]; degron residues 146/147/149/150/152/153/154/155/167: FGPVGACFL) was 3.8841, the Log2FC ([3]; degron residues 146/147/149/150/152/153/154/155/167: FGPVGAMFL) was 3.8585 and the Log2FC ([3]; degron residues 146/147/149/150/152/153/154/155/167: FHEIGAPFL (HEIP)) was 4.0013 and 4.00 and 4.001. For the same compound, the Log2FC [3, 13] was 3.8152, the Log2FC [3, 14] was 3.9155 and 3.96 and 3.955 and the Log2FC ([3]; degron residues 146/147/149/150/152/153/154/155/167: FYEIGAKFL) was 3.9035. The Log2FC ([3]; degron residues 146/147/149/150/152/153/154/155/167: FYEIGAPFL) was 3.8608, the Log2FC ([3]; degron residues 146/147/149/150/152/153/154/155/167: FYEVGAAFL) was 3.8726 and the Log2FC ([3]; degron residues 146/147/149/150/152/153/154/155/167: FYNIGAPFL) was 3.8168. The Log2FC ([3]; degron residues 146/147/149/150/152/153/154/155/167: FYPIGAPFL) was 3.8626, the “degradation of endogenous IKZF1” value [4] was “did not induce degradation of endogenous IKZF1” and the “endogenous IKZF3 levels (Western blot)” value [5] was “remained unaffected”. For the same compound, the “degradation of endogenous IKZF3 (Western blot)” value [5] was “do not induce degradation of endogenous IKZF3”, the “Selectivity (WT/mutant)” value ([6]; DC50(WT)/DC50(FEVP)) was 15.1 and the DC50 ([6]; FEVP, Jurkat, 18 h) was 50.1 nM. For the same compound, the pDC50 ([6]; FEVP, Jurkat, 18 h) was 7.30.

With `CN1CCN(c2ccc3c(c2)C(=O)N(C2CCC(=O)NC2=O)C3=O)CC1` (stereo not shown) [Compound 23] the “Degradation pDC50 WT” value [1] was 5.96, the DC50 [1] was 631 nM and the pDC50 [1] was 6.20. The Dmax ([2]; Jurkat, 18 h) was 79%, the Log2FC [3, 8] was -1.4561 and -1.46 and the logFC [3, 9] was 2.104. It also gave a logFC [3, 10] of 0.9928, a logFC [3, 11] of -0.7621 and a logFC [3, 12] of -0.08962. The Log2FC ([3]; degron residues 146/147/149/150/152/153/154/155/167: FWDIGAAFL (WDIA)) was 4.2601 and 4.26, the Log2FC ([3]; degron residues 146/147/149/150/152/153/154/155/167: FWDIGANFL) was 4.2762 and 4.276 and the Log2FC ([3]; degron residues 146/147/149/150/152/153/154/155/167: FWDIGASFL) was 4.2199. It also gave a Log2FC ([3]; degron residues 146/147/149/150/152/153/154/155/167: FWDVGAAFL) of 4.1742, a Log2FC ([3]; degron residues 146/147/149/150/152/153/154/155/167: FWDVGAQFL) of 4.2369 and a Log2FC ([3]; degron residues 146/147/149/150/152/153/154/155/167: FWDVGASFL) of 4.2017. For the same compound, the Log2FC [3, 13] was 4.1830, the Log2FC ([3]; degron residues 146/147/149/150/152/153/154/155/167: FWEIGAHFL) was 4.1861 and the Log2FC [3, 14] was 4.1692. The Log2FC ([3]; degron residues 146/147/149/150/152/153/154/155/167: FWEIGASFL (WEIS)) was 4.4149 and 4.45 and 4.449, the Log2FC ([3]; degron residues 146/147/149/150/152/153/154/155/167: FWEQGASFL) was 4.1915 and the Log2FC ([3]; degron residues 146/147/149/150/152/153/154/155/167: FWEVGAQFL) was 4.1344. The Log2FC ([3]; degron residues 146/147/149/150/152/153/154/155/167: FWEVGASFL) was 4.2567 and 4.257, the Log2FC ([3]; degron residues 146/147/149/150/152/153/154/155/167: FWNIGAQFL (WNIQ)) was 4.2715 and 4.27 and 4.275 and the Log2FC ([3]; degron residues 146/147/149/150/152/153/154/155/167: FWNQGASFL (WNQS)) was 3.90. For the same compound, the Log2FC ([3]; degron residues 146/147/149/150/152/153/154/155/167: FWNVGASFL) was 4.1357, the Log2FC ([3]; degron residues 146/147/149/150/152/153/154/155/167: FWPVGAQFL) was 4.1974 and the Log2FC ([3]; degron residues 146/147/149/150/152/153/154/155/167: FYEIGASFL) was 4.1371. For the same compound, the Log2FC ([3]; degron residues 146/147/149/150/152/153/154/155/167: FYEVGAEFL) was 4.1417, the Log2FC ([3]; degron residues 146/147/149/150/152/153/154/155/167: FYEVGASFL) was 4.2356 and the “degradation of endogenous IKZF1” value [4] was “did not induce degradation of endogenous IKZF1”. The “endogenous IKZF3 levels (Western blot)” value [5] was “remained unaffected”, the “degradation of endogenous IKZF3 (Western blot)” value [5] was “do not induce degradation of endogenous IKZF3” and the D max (HA-NanoLuc-WEIS; 6 h) was 53%. The D max (HA-NanoLuc-WEIS; 18 h) was 35%, the DC50 (HA-NanoLuc-WEIS; 18 h) was 290 nM and the “proteins degraded (quantitative proteomics)” value (Jurkat cells) was “no major effect on any of the 9644 quantified proteins”. For the same compound, the “Selectivity (WT/mutant)” value ([7]; DC50(WT)/DC50(WNQS)) was 5, the DC50 ([7]; WNQS, Jurkat, 18 h) was 126 nM and the pDC50 ([7]; WNQS, Jurkat, 18 h) was 6.90.
